Columns and labels:
[1] = xn = mol fraction of the nth substance listed; conditions: 101.3 kPa, Liquid; for viscosity: Falling or rolling sphere viscometry; for speed of sound: Sing-around technique in a fixed-path interferometer; for mass density: Vibrating tube method
[2] = refractive index (Na D-line) (dimensionless); xn = mol fraction of the nth substance listed; conditions: 101.3 kPa, Liquid, Standard Abbe refractometry

CC[n+]1cccc(C)c1.O=S(=O)([N-]S(=O)(=O)C(F)(F)F)C(F)(F)F + O
Conditions	mass density, [1] [kg/m3]	refractive index, [2]	speed of sound, [1] [m/s]	viscosity, [1] [mPa·s]
298.15 K, x2 = 0.131	1481.91	1.44197	1262.7	29.75
298.15 K, x2 = 0.189	1479.39	1.44144	1264.6	27.2
298.15 K, x2 = 0.266	1473.92	1.44013	1268.3	23.89
303.15 K, x2 = 0.131	1477.02	1.44057	1251.8	24.96
303.15 K, x2 = 0.189	1474.49	1.44005	1253.4	22.92
303.15 K, x2 = 0.266	1468.97	1.43917	1257.1	20.03
308.15 K, x2 = 0.131	1472.16	1.4391	1240.8	21.21
308.15 K, x2 = 0.189	1469.6	1.43852	1242.3	19.52
308.15 K, x2 = 0.266	1464.04	1.43769	1246	17.09
313.15 K, x2 = 0.131	1467.31	1.43766	1229.9	18.24
313.15 K, x2 = 0.189	1464.73	1.43716	1231.4	16.84
313.15 K, x2 = 0.266	1459.12	1.43624	1234.9	14.62
318.15 K, x2 = 0.131	1462.48	1.43623	1219.1	15.79
318.15 K, x2 = 0.189	1459.88	1.43573	1220.5	14.61
318.15 K, x2 = 0.266	1454.22	1.43533	1224	12.74
323.15 K, x2 = 0.131	1457.66	1.4348	1208.4	13.84
323.15 K, x2 = 0.189	1455.04	1.43425	1209.5	12.88
323.15 K, x2 = 0.266	1449.34	1.43385	1213.2	11.23
328.15 K, x2 = 0.131	1452.87	1.43338	1197.8	12.27
328.15 K, x2 = 0.189	1450.22	1.43281	1199.2	11.44
328.15 K, x2 = 0.266	1444.47	1.43261	1202.4	9.965
333.15 K, x2 = 0.131	1448.09	1.43195	1187.3	10.95
333.15 K, x2 = 0.189	1445.42	1.43142	1188.6	10.21
333.15 K, x2 = 0.266	1439.61	1.43119	1191.8	8.892
338.15 K, x2 = 0.131	1443.32	1.43052	1176.9	9.815
338.15 K, x2 = 0.189	1440.63	1.42999	1178.2	9.153
338.15 K, x2 = 0.266	1434.78	1.42974	1181.2	7.977
343.15 K, x2 = 0.131	1438.57	1.42911	1166.6	8.833
343.15 K, x2 = 0.189	1435.85	1.42853	1167.8	8.239
343.15 K, x2 = 0.266	1429.95	1.42835	1170.8	7.182

CC[n+]1ccccc1C.O=S(=O)([N-]S(=O)(=O)C(F)(F)F)C(F)(F)F + O
Conditions	mass density, [1] [kg/m3]	refractive index, [2]	speed of sound, [1] [m/s]	viscosity, [1] [mPa·s]
298.15 K, x2 = 0.124	1498.88	1.44635	1301.6	54.52
298.15 K, x2 = 0.172	1496.43	1.44579	1302.6	48.93
298.15 K, x2 = 0.256	1490.94	1.44479	1304.6	40.5
303.15 K, x2 = 0.124	1493.99	1.44489	1290.2	44.3
303.15 K, x2 = 0.172	1491.53	1.44442	1291.2	39.95
303.15 K, x2 = 0.256	1485.99	1.44323	1293.2	32.89
308.15 K, x2 = 0.124	1489.12	1.44343	1279	36.58
308.15 K, x2 = 0.172	1486.64	1.44289	1279.9	33.11
308.15 K, x2 = 0.256	1481.06	1.44178	1282.2	27.38
313.15 K, x2 = 0.124	1484.26	1.44195	1267.9	30.63
313.15 K, x2 = 0.172	1481.77	1.44136	1268.8	27.84
313.15 K, x2 = 0.256	1476.14	1.44044	1271	23.19
318.15 K, x2 = 0.124	1479.43	1.4405	1256.9	25.97
318.15 K, x2 = 0.172	1476.91	1.43988	1257.8	23.68
318.15 K, x2 = 0.256	1471.25	1.43914	1259.9	19.85
323.15 K, x2 = 0.124	1474.61	1.43906	1246	22.27
323.15 K, x2 = 0.172	1472.08	1.43853	1246.8	20.38
323.15 K, x2 = 0.256	1466.37	1.43787	1248.8	17.19
328.15 K, x2 = 0.124	1469.81	1.43777	1235.3	19.27
328.15 K, x2 = 0.172	1467.26	1.4372	1236	17.72
328.15 K, x2 = 0.256	1461.5	1.43662	1237.9	14.95
333.15 K, x2 = 0.124	1465.03	1.43633	1224.6	16.83
333.15 K, x2 = 0.172	1462.46	1.43586	1225.3	15.44
333.15 K, x2 = 0.256	1456.65	1.43532	1227.1	13.17
338.15 K, x2 = 0.124	1460.28	1.43494	1214	14.77
338.15 K, x2 = 0.172	1457.68	1.43447	1214.6	13.67
338.15 K, x2 = 0.256	1451.82	1.43398	1216.3	11.71
343.15 K, x2 = 0.124	1455.53	1.43355	1203.5	13.13
343.15 K, x2 = 0.172	1452.91	1.43315	1204.1	12.18
343.15 K, x2 = 0.256	1447.01	1.43279	1205.6	10.47

From the NIST ThermoML archive (doi:10.1016/j.jct.2015.02.020)
